Test results as given in patent US20240360510A1, “DETECTION OF KDM1A LOSS OF ACTIVITY FOR DIAGNOSING ENDOCRINE DISORDERS” (UNIVERSITE PARIS-SACLAY, priority 2021, published 2024).

Tests used:
[1] = tested on: GIPR expression in H295R cells; assay: GIPR messenger RNA by RT-qPCR in H295R cells after KDM1A inhibition; assay type: cell-based, human; conditions: for GIPR messenger RNA level (RT-qPCR): GSK-LSD1 at 0.5 μM
Description: (§1) H295R cells were cultivated in DMEM/Ham's F-12 Medium supplemented with 2 mM Glutamine, 100 IU/mL Penicillin, 100 μg/mL Streptomycin, 10% Fetal Bovine Serum, 20 mM HEPES, and a mixture of Insulin (1 μM), Transferrin (5.8 mg/ml) and Selenium (60 nM). Human pancreatic β-cells EndoC-βH1 have also been used. They are cultivated as described in Ravassard P. et al^38.
(§2) Cells were incubated up to 10 days with 0.5 μM GSK-LSD1 an irreversible inhibitor of KDM1A (Sigma-Aldrich).
(§3) Transfection of siRNAs protocol was performed as follow. Briefly, H295R cells were cultivated in serum free Optimem medium (Life Technologies) for 2 hours, then incubated for 6 h with Lipofectamine RNAiMAX (2 μL/well) and 100 nM siRNA targeting KDM1A or Scrambled siRNA (Horizon). Two iterative transfections were performed at 1 and 3 days after seeding. Expression level of the studied gene was determined using reverse transcription quantitative polymerase chain reaction (RT-qPCR).
(§4) RNA extraction from cell cultures and tissue protocol and RT-qPCR protocol were as follows: DNA was extracted from frozen adrenal samples using the phenol-chloroform-isoamyl alcohol extraction method. DNA was extracted from Formalin-Fixed Paraffin-Embedded (FFPE) sample using NucleoSpin DNA FFPE XS kit (Macherey-Nagel) or from blood leucocytes using either an automated QIAsymphony platform (Qiagen) or the Flexigene DNA Kit (Qiagen). Total RNA was extracted from tissues or cells using TRIzol reagent according to the manufacturer's instructions. After DNAse I treatment (New England Biolabs), 1 μg of total RNA was reverse transcribed using the High-Capacity cDNA reverse transcription kit (Life Technologies). Samples were analyzed by RT-qPCR using the Power SYBR® Green PCR Master Mix (Life Technologies) or the TaqMan Gene Expression Assays (Life Technologies, ref. 4331182 and 4448489) and were run on a QS6 Real-Time PCR System (Life Technologies). […] Relative expression of the gene of interest was expressed as a ratio of attomoles to attomoles of housekeeper genes.

[2] = tested on: GIPR protein in H295R cells; assay: GIPR protein by immunofluorescence and automated High-throughput Microscopy in H295R cells; assay type: cell-based, human
Description: as §1, §2, §3
Cells were grown on a 24 well plates containing glass coverslips (14-mm diameter). After 24 h, siRNA targeting KDM1A or Scramble siRNA (100 nM) were transfected as described above. Briefly, cells were fixed with 4% paraformaldehyde and permeabilized 10 min with a 0.2% solution of Triton X100 diluted in PBS. […]
Sequential images (20×-0.40 NA lens) were acquired for each channel with the automated ArrayScan VTI imaging and analyzing platform (Thermo Fisher Scientific). The TargetActivation Algorithm (v.4) was used to detect and quantify the GIPR fluorescence as following. DAPI fluorescence was used to find the focus and was sequentially acquired with GIPR fluorescence in order to give separate image files. […] In order to quantify the amount of GIPR fluorescence (channel 2) present in the cytoplasm of the primary selected object, this nuclear mask was dilated to cover the cytoplasmic region. […] The cytoplasmic mask was lastly used to detect, select and quantify the average fluorescence of GIPR in the final population of transfected cells (n>40,000). […]

[3] = tested on: GIPR messenger RNA levels in human pancreatic β-cells EndoC-βH1; assay: GIPR transcripts by RT-qPCR in pancreatic β-cells EndoC-βH1 after KDM1A inhibition; assay type: cell-based
Description: as §1, §2, §3, §4

In the case of c1ccc([C@@H]2C[C@H]2NC2CCNCC2)cc1 [GSK-LSD1], the “GIPR messenger RNA level (RT-qPCR)” value ([1]; seven days, p=0.0082) is reported as “significant increase of GIPR expression”, the “GIPR messenger RNA level (RT-qPCR)” value ([1]; three days, p=0.0069) is reported as “significant increase of GIPR expression” and the “GIPR expression, quantified by RT-qPCR” value ([1]; treatment with GSK-LSD1, time not given) is reported as “increased GIPR expression”. The “GIPR protein expression in the cytoplasm (automated High-throughput Microscopy)” value ([2]; H295R cells transfected (KDM1A siRNA) and treated (GSK-LSD1), seven days, p<0.0001, analyzed cells>40 000) was “increase in protein expression”, the “GIPR expression observed by immunofluorescence” value ([2]; H295R cells, KDM1A siRNA transfection and concomitant pharmacological inhibition (GSK-LSD1) for seven days) was “significant GIPR expression” and the “expression of GIPR protein (automated High-throughput Microscopy)” value ([2]; H295R cells, compared to untreated cells, analyzed cells>40 000, p<0.001) was “significant increased expression of GIPR protein”. For the same compound, the “GIPR transcripts (RT-qPCR)” value ([3]; KDM1A siRNA and GSK-LSD1, 3 days of treatment, p=0.0113) was “significant increase in GIPR transcripts”, the “GIPR transcripts (RT-qPCR)” value ([3]; KDM1A siRNA and GSK-LSD1, 7 days of treatment, p=0.0027) was “significant increase in GIPR transcripts” and the “GIPR expression (GIPR transcripts, RT-qPCR)” value ([3]; KDM1A silencing and concomitant GSK-LSD1, time not given) was “increased GIPR expression”.
